Source: patent publication US9357778B2, “N-acyl-2-(cyclo)alkypyrrolidines and piperidines useful as fungicides” (BAYER CROPSCIENCE AG, priority 2012, dated 2016)

Legend:
[1] = log P by HPLC on reversed-phase column (C 18), EEC Directive 79/831 Annex V.A8; format: physicochemical; details: 40° C., 0.1% aqueous formic acid and acetonitrile
Protocol: In table 1, the log P values were determined in accordance with EEC Directive 79/831 Annex V.A8 by HPLC (High Performance Liquid Chromatography) on a reversed-phase column (C 18), using the method described below: Temperature: 40° C.; Mobile phases: 0.1% aqueous formic acid and acetonitrile; linear gradient from 10% acetonitrile to 90% acetonitrile. Calibration was carried out using unbranched alkan-2-ones (comprising 3 to 16 carbon atoms) with known log P values (determination of the log P values by the retention times using linear interpolation between two successive alkanones). lambda-max-values were determined using UV-spectra from 200 nm to 400 nm and the peak values of the chromatographic signals.

Alternaria solani = test: In vivo preventive test on Alternaria solani (tomato); details: evaluated 7 days after inoculation
Protocol: In Vivo Preventive Test on Alternaria solani (Tomato) • Solvent: 49 parts by weight of N,N-dimethylformamide • Emulsifier: 1 part by weight of alkylarylpolyglycolether To produce a suitable preparation of active compound, 1 part by weight of active compound is mixed with the stated amounts of solvent and emulsifier, and the concentrate is diluted with water to the desired concentration. To test for preventive activity, young plants are sprayed with the preparation of active compound at the stated rate of application. One day after this treatment, the plants are inoculated with an aqueous spore suspension of Alternaria solani. The plants remain for one day in an incubation cabinet at approximately 22° C. and a relative atmospheric humidity of 100%. Then the plants are placed in an incubation cabinet at approximately 20° C. and a relative atmospheric humidity of 96%. The test is evaluated 7 days after the inoculation. 0% means an efficacy which corresponds to that of the untreated control while an efficacy of 100% means that no disease is observed.

Pyrenophora teres = test: In vivo preventive test on Pyrenophora teres (barley); details: 500 ppm of active ingredient, evaluated 7-9 days after inoculation
Protocol: In Vivo Preventive Test on Pyrenophora teres (Barley) • Solvent: 49 parts by weight of N,N-dimethylformamide • Emulsifier: 1 part by weight of alkylaryl polyglycol ether To produce a suitable preparation of active compound, 1 part by weight of active compound is mixed with the stated amounts of solvent and emulsifier, and the concentrate is diluted with water to the desired concentration. To test for preventive activity, young plants are sprayed with the preparation of active compound at the stated rate of application. One day after this treatment, the plants are inoculated with an aqueous spore suspension of Pyrenophora teres. The plants remain for 48 hours in an incubation cabinet at 22° C. and a relative atmospheric humidity of 100%. Then the plants are placed in a greenhouse at a temperature of approximately 20° C. and a relative atmospheric humidity of approximately 80%. The test is evaluated 7-9 days after the inoculation. 0% means an efficacy which corresponds to that of the untreated control while an efficacy of 100% means that no disease is observed.

Sphaerotheca fuliginea = test: In vivo preventive test on Sphaerotheca fuliginea (cucumber); details: 500 ppm of active ingredient, evaluated 7 days after inoculation
Protocol: In Vivo Preventive Test on Sphaerotheca Fulicinea (Cucumber) • Solvent: 49 parts by weight of N,N-dimethylformamide • Emulsifier: 1 part by weight of alkylarylpolyglycolether To produce a suitable preparation of active compound, 1 part by weight of active compound is mixed with the stated amounts of solvent and emulsifier, and the concentrate is diluted with water to the desired concentration. To test for preventive activity, young plants are sprayed with the preparation of active compound at the stated rate of application. One day after this treatment, the plants are inoculated with an aqueous spore suspension of Sphaerotheca fuliginea. Then the plants are placed in a greenhouse at approximately 23° C. and a relative atmospheric humidity of approximately 70%. The test is evaluated 7 days after the inoculation. 0% means an efficacy which corresponds to that of the untreated control, while an efficacy of 100% means that no disease is observed.

Leptosphaeria nodorum = test: In vivo preventive test on Leptosphaeria nodorum (wheat); details: 500 ppm of active ingredient, evaluated 8 days after inoculation
Protocol: In Vivo Preventive Test on Leptosphaeria nodorum (Wheat) • Solvent: 49 parts by weight of N,N-dimethylacetamide • Emulsifier: 1 part by weight of alkylaryl polyglycol ether To produce a suitable preparation of active compound, 1 part by weight of active compound or active compound combination is mixed with the stated amounts of solvent and emulsifier, and the concentrate is diluted with water to the desired concentration. To test for preventive activity, young plants are sprayed with the preparation of active compound or active compound combination at the stated rate of application. After the spray coating has been dried, the plants are sprayed with a spore suspension of Leptosphaeria nodorum. The plants remain for 48 hours in an incubation cabinet at approximately 20° C. and a relative atmospheric humidity of approximately 100%. The plants are placed in the greenhouse at a temperature of approximately 22° C. and a relative atmospheric humidity of approximately 80%. The test is evaluated 8 days after the inoculation. 0% means an efficacy which corresponds to that of the untreated control, while an efficacy of 100% means that no disease is observed.

| Compound | logP [1] | Efficacy (Alternaria solani; 500 ppm of active ingredient) | Efficacy (Pyrenophora teres) | Efficacy (Sphaerotheca fuliginea) | Efficacy (Leptosphaeria nodorum) | Efficacy (Alternaria solani; 100 ppm of active ingredient) |
| --- | --- | --- | --- | --- | --- | --- |
| Cn1nc(C(F)F)c(C(=O)N2CCCC2C(F)(F)F)c1F (stereo not drawn) [Example 2] | 2.25 | – | 100% | – | – | – |
| Cn1nc(C(F)F)c(C(=O)N2CCCCC2C2CCCCC2)c1F (stereo not drawn) [Example 24] | 3.60 | 94% | 100% | 95% | – | – |
| CCCOCCC1CCCCN1C(=O)c1cn(C)nc1C(F)F (stereo not drawn) [Example 27] | 2.39 | – | – | – | – | – |
| Cn1nc(C(F)F)c(C(=O)N2CCCCC2C(F)(F)F)c1F (stereo not drawn) [Example 19] | 2.63 | – | 94% | – | – | – |
| Cn1nc(C(F)F)c(C(=O)N2CCCC2CC2CCCCC2)c1Cl (stereo not drawn) [Example 16] | 3.89 | 94% | 100% | – | 70% | – |
| Cn1nc(C(F)F)c(C(=O)N2CCCC2C23CC4CC(CC(C4)C2)C3)c1F (stereo not drawn) [Example 14] | 4.44 | 94% | 100% | 70% | – | – |
| Cn1nc(C(F)F)c(C(=O)N2CCCCC2C2CCCCC2)c1Cl (stereo not drawn) [Example 23] | 3.85 | 88% | 100% | – | – | – |
| Cn1nc(C(F)F)c(C(=O)N2CCCCC2CC2CCCCC2)c1F (stereo not drawn) [Example 26] | 4.19 | 100% | 100% | 100% | – | – |
| Cn1nc(C(F)F)c(C(=O)N2CCCC2C2CCCCC2)c1Cl (stereo not drawn) [Example 10] | 3.48 | 94% | 100% | 90% | – | – |
| CCCCCCC1CCCCN1C(=O)c1c(C(F)F)nn(C)c1F (stereo not drawn) [Example 22] | 4.18 | 100% | 100% | – | – | – |
| Cn1cc(C(=O)N2CCCC2CC2CCCCC2)c(C(F)F)n1 (stereo not drawn) [Example 15] | 3.33 | 89% | 100% | 85% | – | – |
| CCCCCCC1CCCN1C(=O)c1cn(C)nc1C(F)F (stereo not drawn) [Example 6] | 3.37 | 94% | 95% | – | – | – |
| CCCCCCC1CCCCN1C(=O)c1cn(C)nc1C(F)F (stereo not drawn) [Example 20] | 3.71 | 100% | 100% | – | – | 94% |
| CCCCCCC1CCCCN1C(=O)c1c(C(F)F)nn(C)c1Cl (stereo not drawn) [Example 21] | 4.39 | 100% | 100% | – | – | – |
| CCCOCCC1CCCCN1C(=O)c1c(C(F)F)nn(C)c1Cl (stereo not drawn) [Example 28] | 2.90 | – | – | – | – | – |
| Cn1cc(C(=O)N2CCCCC2C2CCCCC2)c(C(F)F)n1 (stereo not drawn) [Example 25] | 3.15 | 90% | 100% | 100% | – | 90% |
| Cn1nc(C(F)F)c(C(=O)N2CCCCC2C(F)(F)F)c1Cl (stereo not drawn) [Example 18] | 2.80 | – | 89% | – | – | – |
| CCCCCCC1CCCN1C(=O)c1c(C(F)F)nn(C)c1Cl (stereo not drawn) [Example 7] | 3.94 | 94% | 100% | – | – | – |
| Cn1cc(C(=O)N2CCCC2C23CC4CC(CC(C4)C2)C3)c(C(F)F)n1 (stereo not drawn) [Example 12] | 3.89 | 94% | 100% | – | – | 89% |
| Cn1cc(C(=O)N2CCCC2C2CCCCC2)c(C(F)F)n1 (stereo not drawn) [Example 9] | 2.88 | 89% | 100% | 95% | – | – |
| Cn1nc(C(F)F)c(C(=O)N2CCCC2C23CC4CC(CC(C4)C2)C3)c1Cl (stereo not drawn) [Example 13] | 4.67 | 94% | 100% | – | – | – |
| Cn1nc(C(F)F)c(C(=O)N2CCCC2C(F)(F)F)c1Cl (stereo not drawn) [Example 1] | 2.39 | – | 100% | – | – | – |

Further lines, with some results ahead:

| logP [1] | Compound | Efficacy (Alternaria solani; 500 ppm of active ingredient) | Efficacy (Pyrenophora teres) | Efficacy (Sphaerotheca fuliginea) | Efficacy (Leptosphaeria nodorum) | Efficacy (Alternaria solani; 100 ppm of active ingredient) |
| --- | --- | --- | --- | --- | --- | --- |
| 2.73 | CCCOCCC1CCCCN1C(=O)c1c(C(F)F)nn(C)c1F (stereo not drawn) [Example 29] | 94% | 100% | – | – | – |
| 2.33 | COCCCC1CCCCN1C(=O)c1c(C(F)F)nn(C)c1Cl (stereo not drawn) [Example 46] | – | – | – | – | – |
| 1.96 | COCCCOCCC1CCCCN1C(=O)c1cn(C)nc1C(F)F (stereo not drawn) [Example 41] | – | 70% | – | – | – |
| 3.19 | CCCCOCCC1CCCCN1C(=O)c1c(C(F)F)nn(C)c1F (stereo not drawn) [Example 32] | 94% | 100% | – | – | – |
| 4.67 | Cn1nc(C(F)F)c(C(=O)N2CCCCC2CCOCCC2CCCCC2)c1F (stereo not drawn) [Example 44] | 89% | 100% | – | – | – |
| 2.80 | CCCCOCCC1CCCCN1C(=O)c1cn(C)nc1C(F)F (stereo not drawn) [Example 30] | 89% | 95% | – | – | – |
| 3.99 | Cn1nc(C(F)F)c(C(=O)N2CCCC2CC2CC3CCC2C3)c1Cl (stereo not drawn) [Example 50] | 88% | 100% | – | – | – |
| 2.18 | COCCCC1CCCCN1C(=O)c1c(C(F)F)nn(C)c1F (stereo not drawn) [Example 47] | 89% | 100% | – | – | – |
| 3.33 | Cn1nc(C(F)F)c(C(=O)N2CCCCC2CCOCC2CCC2)c1F (stereo not drawn) [Example 37] | 94% | 94% | – | – | – |
| 2.92 | Cn1cc(C(=O)N2CCCCC2CCOCC2CCC2)c(C(F)F)n1 (stereo not drawn) [Example 38] | – | 89% | – | – | – |
| 2.66 | Cn1nc(C(F)F)c(C(=O)N2CCCCC2CCOCC2CC2)c1F (stereo not drawn) [Example 35] | 94% | 94% | – | – | – |
| 2.25 | COCCCOCCC1CCCCN1C(=O)c1c(C(F)F)nn(C)c1F (stereo not drawn) [Example 40] | 94% | 95% | – | – | – |
| 1.88 | COCCCC1CCCCN1C(=O)c1cn(C)nc1C(F)F (stereo not drawn) [Example 45] | – | – | – | – | – |
| 2.32 | Cn1cc(C(=O)N2CCCCC2CCOCC2CC2)c(C(F)F)n1 (stereo not drawn) [Example 33] | – | 94% | – | – | – |
| 3.51 | Cn1nc(C(F)F)c(C(=O)N2CCCCC2CCOCC2CCC2)c1Cl (stereo not drawn) [Example 36] | 88% | 78% | – | – | – |
| 4.51 | Cn1nc(C(F)F)c(C(=S)N2CCCC2C23CC4CC(CC(C4)C2)C3)c1F (stereo not drawn) [Example 52] | – | – | – | – | – |
| 3.35 | CCCCOCCC1CCCCN1C(=O)c1c(C(F)F)nn(C)c1Cl (stereo not drawn) [Example 31] | 89% | 90% | – | – | – |
| 4.87 | Cn1nc(C(F)F)c(C(=O)N2CCCCC2CCOCCC2CCCCC2)c1Cl (stereo not drawn) [Example 43] | – | 90% | – | – | – |
| 4.23 | Cn1cc(C(=O)N2CCCCC2CCOCCC2CCCCC2)c(C(F)F)n1 (stereo not drawn) [Example 42] | 78% | 95% | – | – | – |
| 3.96 | Cn1nc(C(F)F)c(C(=S)N2CCCC2CC2CCCCC2)c1F (stereo not drawn) [Example 51] | – | – | – | – | – |
| 2.82 | Cn1nc(C(F)F)c(C(=O)N2CCCCC2CCOCC2CC2)c1Cl (stereo not drawn) [Example 34] | – | 94% | – | – | – |
| 2.39 | COCCCOCCC1CCCCN1C(=O)c1c(C(F)F)nn(C)c1Cl (stereo not drawn) [Example 39] | – | – | – | – | – |
